Where two headings read alike, the source gives them in different places.
Assays:
[1] = target: human TRPV1 (Homo sapiens, UniProt Q8NER1); experiment: FLIPR Ca2+ assay, reduction of L-Menthol activation of TRPV1; conditions: for Average Ca2+ Counts / % Reduction of L-Menthol TRPV1 Activation: antagonist 100 μM against 1 mM L-Menthol; for inhibition at 100 µM: read-out: % Reduction of L-Menthol TRPV1 Activation
Experimental: To determine whether TRPV1 was activated, the intracellular calcium ion (Ca^+2) levels from cells transfected with the TRPV1 receptor gene was measured. HEK-239 cells stably transfected with human TRPV1 were grown in 15 ml growth medium [high glucose DMEM (Dulbecco's Modification of Eagle's Medium) supplemented with 10% FBS (fetal bovine serum), 100 g/ml Penicillin/streptomycin, 100 g/ml G418] in a 75 Cm2 flask for 3 days at 33° C. in a mammalian cell culture incubator set at 5% CO2. Cells were detached with addition of 10 ml of PBS (phosphate buffered saline) by hand shaking gently. Cells were transferred to a 50 ml tube and centrifuged at 850 rpm for 3 minutes to remove PBS. After centrifugation, a pellet of cells formed in the bottom of the tube separating them from the supernatant solution. The supernatant was discarded and the cell pellet suspended in 1 ml of fresh growth medium to which 5 μl (12.5 g) of Fluo-4 AM (Molecular Probes, Inc., Eugene, Oreg.) calcium indicator was added and incubated for 30 minutes with gentle shaking.
The pelleted cells were re-suspended in 10 ml assay buffer and 90 μl aliquots (˜50,000 cells) per well delivered to a 96-well assay plate containing 10 μl of test compounds (1 mM in assay buffer, final concentration 100 μM) or buffer control and incubated at room temperature for 30 minutes. After 30 minutes, the plate was placed into a fluorometric imaging plate reader (FLIPR384 from Molecular Devices) and basal fluorescence recorded (excitation wave length 488 nm and emission wave length 510 nm). Then 20 μl of the compound being tested as a TRPV1 receptor activator was added and fluorescence recorded. […] It may be no difference (no effect), or negative (means antagonist or desensitizer) or positive (enhancer, also known as positive allosteric modulator). […] To determine if a compound was an antagonist or a desensitizer, the direct effect of a test compound was determined. For determining the direct effect of test compounds on TRPV1, 100 μl aliquots (˜50,000 cells) of cells prepared as described above were delivered to a 96-well assay plate and basal fluorescence recorded as noted above. Then 20 μl of the compound being tested as a TRPV1 receptor activator was added and fluorescence recorded. If any increase in fluorescence over background was noted, then the compound was considered an agonist. The agonist activity was expressed relative to that observed with a benchmark agonist such as 350 nM Capsaicin for TRPV1.
100 μM of antagonist was tested against 1 mM of L-Menthol to determine the level of reduced TRPV1 receptor activation by L-Menthol. Each antagonist compound was run with 1 mM of L-Menthol as a control and the antagonist activity of each compound was determined by comparing the Ca^2+ levels of the control with the antagonist compound being tested.

[2] = target: human TRPA1 (Homo sapiens, UniProt O75762); experiment: FLIPR Ca2+ assay, reduction of hydrogen peroxide activation of TRPA1; type: cell-based; set-up: expressed in transfected cells; conditions: for inhibition at 100 µM / inhibition at 400 µM: read-out: % Reduction of Hydrogen Peroxide TRPA1 Activation
Experimental: After centrifugation, a pellet of cells was formed in the bottom of the tube separating them from the supernatant solution.
The pelleted cells were re-suspended in 10 ml assay buffer and 90 μl aliquots (˜50,000 cells) per well delivered to a 96-well assay plate containing 10 μl of test compounds ([…]) or buffer control and incubated at room temperature for 30 minutes.

[3] = 100 μM antagonist vs 500 μM hydrogen peroxide
[4] = compound 100 μM against 200 μM hydrogen peroxide, Sets 1-4
[5] = 400 μM antagonist vs 500 μM hydrogen peroxide
[6] = antagonist 100 μM against 200 μM hydrogen peroxide
[7] = antagonist 400 μM against 200 μM hydrogen peroxide

Sequence of human TRPV1 (Q8NER1 whole entry): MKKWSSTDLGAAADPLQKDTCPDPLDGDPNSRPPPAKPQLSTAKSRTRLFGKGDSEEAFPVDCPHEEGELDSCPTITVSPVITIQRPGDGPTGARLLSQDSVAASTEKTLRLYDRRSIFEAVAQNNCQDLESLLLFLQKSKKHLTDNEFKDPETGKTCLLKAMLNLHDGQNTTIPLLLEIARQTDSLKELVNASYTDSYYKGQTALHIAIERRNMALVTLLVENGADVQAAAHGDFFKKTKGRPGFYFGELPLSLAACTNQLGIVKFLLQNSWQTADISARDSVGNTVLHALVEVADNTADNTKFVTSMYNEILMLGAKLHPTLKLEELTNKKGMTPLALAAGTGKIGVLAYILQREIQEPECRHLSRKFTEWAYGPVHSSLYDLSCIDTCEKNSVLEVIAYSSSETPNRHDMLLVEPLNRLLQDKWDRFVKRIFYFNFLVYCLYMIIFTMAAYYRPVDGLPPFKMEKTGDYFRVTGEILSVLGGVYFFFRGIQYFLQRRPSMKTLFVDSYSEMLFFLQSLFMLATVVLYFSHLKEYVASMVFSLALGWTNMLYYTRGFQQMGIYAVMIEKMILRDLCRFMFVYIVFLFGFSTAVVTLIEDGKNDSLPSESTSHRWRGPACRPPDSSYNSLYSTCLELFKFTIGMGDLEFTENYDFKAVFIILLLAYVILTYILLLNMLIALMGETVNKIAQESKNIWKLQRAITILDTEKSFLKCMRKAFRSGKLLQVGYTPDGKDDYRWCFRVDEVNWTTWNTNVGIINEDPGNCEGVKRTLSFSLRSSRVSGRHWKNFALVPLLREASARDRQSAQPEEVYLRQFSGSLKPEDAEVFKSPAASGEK
Sequence of human TRPA1 (O75762 whole entry): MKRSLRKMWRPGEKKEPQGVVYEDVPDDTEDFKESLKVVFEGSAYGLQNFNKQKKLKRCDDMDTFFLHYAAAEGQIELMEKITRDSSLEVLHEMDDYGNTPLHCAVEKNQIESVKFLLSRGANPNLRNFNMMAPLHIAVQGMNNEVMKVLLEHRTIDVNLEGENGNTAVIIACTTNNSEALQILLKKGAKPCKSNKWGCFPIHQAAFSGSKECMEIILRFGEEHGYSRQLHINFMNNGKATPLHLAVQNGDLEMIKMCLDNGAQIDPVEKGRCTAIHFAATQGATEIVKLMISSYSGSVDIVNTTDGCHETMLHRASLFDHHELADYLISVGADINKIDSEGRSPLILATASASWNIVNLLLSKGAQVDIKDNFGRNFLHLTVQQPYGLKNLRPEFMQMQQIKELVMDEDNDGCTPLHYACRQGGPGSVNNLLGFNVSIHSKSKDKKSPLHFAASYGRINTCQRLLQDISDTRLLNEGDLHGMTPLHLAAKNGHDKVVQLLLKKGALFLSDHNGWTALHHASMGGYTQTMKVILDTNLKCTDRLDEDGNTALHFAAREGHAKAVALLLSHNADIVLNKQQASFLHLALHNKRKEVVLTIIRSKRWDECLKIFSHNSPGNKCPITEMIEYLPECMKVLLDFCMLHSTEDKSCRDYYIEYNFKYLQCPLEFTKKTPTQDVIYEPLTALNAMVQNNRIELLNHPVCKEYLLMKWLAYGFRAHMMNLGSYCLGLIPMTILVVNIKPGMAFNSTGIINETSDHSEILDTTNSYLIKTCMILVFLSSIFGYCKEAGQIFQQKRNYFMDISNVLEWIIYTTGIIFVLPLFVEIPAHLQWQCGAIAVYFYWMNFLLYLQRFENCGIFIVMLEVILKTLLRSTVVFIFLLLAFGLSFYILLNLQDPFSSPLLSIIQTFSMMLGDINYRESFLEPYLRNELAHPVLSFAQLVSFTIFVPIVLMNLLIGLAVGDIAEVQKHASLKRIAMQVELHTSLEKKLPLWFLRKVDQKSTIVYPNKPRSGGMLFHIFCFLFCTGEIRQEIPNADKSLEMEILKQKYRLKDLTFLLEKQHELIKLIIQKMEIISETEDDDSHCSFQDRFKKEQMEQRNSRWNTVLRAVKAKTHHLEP

| Compound | Block of hydrogen peroxide activation of TRPA1 [2, 3] | Average Ca++ Counts [2, 4] [Counts] | inhibition at 100 µM [2, 4] [%] | other results |
| --- | --- | --- | --- | --- |
| CC(O)c1ccccc1 (racemic) [(+−)-1-phenylethanol] | – | – | – | Average Ca2+ Counts [1]: 1087.7 Counts; inhibition at 100 µM [1]: 41.6% |
| CCc1occc(=O)c1O [2-ethyl-3-hydroxy-4h-pyran-4-one] | – | – | – | Average Ca2+ Counts [1]: 1095.3 Counts; inhibition at 100 µM [1]: 41.3% |
| CCOc1ccc(C=O)cc1 [4-ethoxybenzaldehyde] | – | – | – | Average Ca2+ Counts [1]: 1200.0 Counts; inhibition at 100 µM [1]: 36.4% |
| CC(C)=CCCC(C)CCO (racemic) [(+−)-beta;-citronellol] | – | – | – | % Reduction of L-Menthol TRPV1 Activation [1]: 22.5%; Average Ca2+ Counts [1]: 1501.3 Counts |
| CCCCOC(=O)C(C)CC (stereo not drawn) [butyl 2-methylbutyrate] | – | – | – | Average Ca2+ Counts [1]: 1233.7 Counts; inhibition at 100 µM [1]: 34.9% |
| CC(=O)OCC1=CCC2CC1C2(C)C (stereo not drawn) [6,6-dimethylbicyclo[3.1.1]hept-2-ene-2-methyl acetate] | – | – | – | % Reduction of L-Menthol TRPV1 Activation [1]: 24.9%; Average Ca2+ Counts [1]: 1448.3 Counts |
| C=C(C)OC(C)=O [acetic acid isopropenyl ester] | BLOCK ONLY H2O2/TRPA1 | 2860.5 | 59.4 | – |
| CC1=C(O)C(=O)CC1.O [2-hydroxy-3-methyl-2-cyclopenten-1-one hydrate] | – | – | – | Average Ca++ Counts [2]: 4172.0 Counts; inhibition at 100 µM [2]: 60.6% |
| Cc1ccc(C(C)C)cc1O [carvacrol] | – | – | – | Average Ca++ Counts [2]: 3464.5 Counts; inhibition at 100 µM [2]: 50.8% |
| CCC/C=C/C=O [trans-2-Hexenal] | – | – | – | Block of hydrogen peroxide activation of TRPA1 [2]: BLOCK ONLY H2O2/TRPA1; inhibition at 400 µM [2]: 52% |
| CCCCCCC1OCC(C)O1 (stereo not drawn) [2-Hexyl-4-methyl-1,3-dioxolane] | BLOCK ONLY H2O2/TRPA1 | – | – | – |
| CC(C)CCCC(=O)O [5-methylhexanoic acid] | BLOCK ONLY H2O2/TRPA1 | 4747.0 | 55.2 | – |
| c1ccc2ncccc2c1 [quinoline] | BLOCK ONLY H2O2/TRPA1 | 3440.0 | 51.2 | – |
| C[C@H]1CC[C@]2(O1)C(C)(C)CCC[C@]2(C)O | – | – | – | Block of hydrogen peroxide activation of TRPA1 [2, 5]: BLOCK ONLY H2O2/TRPA1 |
| COc1cc(C(=O)O)ccc1O [Vanillic Acid] | BLOCK ONLY H2O2/TRPA1 | – | – | inhibition at 100 µM [2, 6]: 19% |
| CCC(C)COC(=O)C(C)CC (stereo not drawn) [2-Methyl butyl 2-methylbutyrate] | BLOCK ONLY H2O2/TRPA1 | – | – | – |
| CC1CCC(=O)C1=O (stereo not drawn) [3-methyl-1,2-cyclopentanedione] | BLOCK ONLY H2O2/TRPA1 | 3246.5 | 53.9 | – |
| C=CC(CCCCC)OC(C)=O (stereo not drawn) [1-octen-3-yl acetate] | BLOCK ONLY H2O2/TRPA1 | 3228.5 | 54.2 | – |
| C=C(C)c1ccc(C)cc1 [Alpha-p-dimethylstyrene] | BLOCK ONLY H2O2/TRPA1 | – | – | – |
| CC(=O)OCC(C)(C)Cc1ccccc1 | BLOCK ONLY H2O2/TRPA1 | – | – | – |
| CCCCC(CC)CO (stereo not drawn) [2-ethyl-1-hexanol] | BLOCK ONLY H2O2/TRPA1 | 4960.5 | 53.2 | – |
| CCC(C)COC(=O)C(C)CC (stereo not drawn) [2-methylbutyl 2-methylbutyrate] | – | 2685.5 | 61.9 | – |
| CCCCC(=O)OC1CC2CCC1(C)C2(C)C (stereo not drawn) [Bornyl Valerate] | – | – | – | Block of hydrogen peroxide activation of TRPA1 [2, 5]: BLOCK ONLY H2O2/TRPA1; inhibition at 400 µM [2, 7]: 52% |
| CC=C(C=O)c1ccccc1 [2-phenyl-2-butenal] | BLOCK ONLY H2O2/TRPA1 | 3809.0 | 56.3 | – |

| Compound | Block of hydrogen peroxide activation of TRPA1 [2, 3] | Average Ca++ Counts [2, 4] [Counts] | inhibition at 100 µM [2, 4] [%] | other results |
| --- | --- | --- | --- | --- |
| COC(=O)c1ccc(O)cc1 [methyl 4-hydroxybenzoate] | BLOCK ONLY H2O2/TRPA1 | 4904.5 | 53.7 | – |
| CC=CC(=O)O [but-2-enoic acid] | BLOCK ONLY H2O2/TRPA1 | 5193.0 | 51 | – |
| CCCCCCCC(C)O (stereo not drawn) [2-nonanol] | BLOCK ONLY H2O2/TRPA1 | 3064.5 | 56.5 | – |
| CCCC(CCOC(C)=O)SC(C)=O (stereo not drawn) [3-acetylsulfanylhexyl acetate] | – | – | – | Block of hydrogen peroxide activation of TRPA1 [2, 5]: BLOCK ONLY H2O2/TRPA1; inhibition at 400 µM [2, 7]: 58% |
| CCCCCCC1(C)CCC(=O)O1 (stereo not drawn) [γ-Methyl Decalactone] | BLOCK ONLY H2O2/TRPA1 | – | – | % Reduction of Hydrogen Peroxide TRPA1 Activation [2, 6]: 48% |
| CC(O)C(=O)NCCO (stereo not drawn) [N-(2-Hydroxyethyl) lactamide] | – | – | – | Block of hydrogen peroxide activation of TRPA1 [2, 5]: BLOCK ONLY H2O2/TRPA1; inhibition at 400 µM [2, 7]: 65% |
| CC(C)CCCC(C)CCO (stereo not drawn) [3,7-Dimethyl-1-octanol] | BLOCK ONLY H2O2/TRPA1 | – | – | – |
| CC(=O)CCc1ccc2c(c1)OCO2 [4-benzo[1,3]dioxol-5-yl-butan-2-one] | – | – | – | Average Ca++ Counts [2]: 5431.5 Counts; Block of hydrogen peroxide activation of TRPA1 [2]: BLOCK ONLY H2O2/TRPA1; inhibition at 100 µM [2]: 48.7% |
| desoxycholic acid | – | – | – | % Reduction of Hydrogen Peroxide TRPA1 Activation [2]: 56.6%; Average Ca++ Counts [2]: 3058.5 Counts; Block of hydrogen peroxide activation of TRPA1 [2]: BLOCK ONLY H2O2/TRPA1 |
| C/C=C(\C)C(=O)OCc1ccccc1 [benzyl tiglate] | BLOCK ONLY H2O2/TRPA1 | 2385.0 | 59.4 | – |
| CCCC=O [butyraldehyde] | BLOCK ONLY H2O2/TRPA1 | 4725.5 | 55.4 | – |
| CC1CC(O)CC(C)(C)C1 (stereo not drawn) [3,3,5-Trimethylcyclohexanol] | – | – | – | Block of hydrogen peroxide activation of TRPA1 [2, 5]: BLOCK ONLY H2O2/TRPA1; inhibition at 400 µM [2, 7]: 72% |
| CC(=O)C(C)O (stereo not drawn) [acetoin] | BLOCK ONLY H2O2/TRPA1 | 4341.5 | 59 | – |
| CC1=CC(O)CC(C)C2CC(=C(C)C)CC12 (stereo not drawn) [Vetiverol, 6-Azulenol, 1,2,3,3a,4,5,6,8a-octahydro-4,8-dimethyl-2-(1-methylethylidene)-] | – | – | – | inhibition at 400 µM [2, 7]: -34% |
| CCCC1CC(=O)C=C(C)C1 (stereo not drawn) | – | – | – | Block of hydrogen peroxide activation of TRPA1 [2, 5]: BLOCK ONLY H2O2/TRPA1 |
| COC(=O)c1ccccc1 [methylbenzoate] | – | – | – | Average Ca++ Counts [2]: 3817.0 Counts; Block of hydrogen peroxide activation of TRPA1 [2]: BLOCK ONLY H2O2/TRPA1; inhibition at 100 µM [2]: 56.2% |
| CCOc1nccnc1C [2-methyl-3-ethoxypyrazine] | BLOCK ONLY H2O2/TRPA1 | 3197.0 | 54.6 | – |
| CCC(=O)c1nccs1 [2-propionylthiazole] | BLOCK ONLY H2O2/TRPA1 | 4875.0 | 54 | – |
| Cc1ccc(C(C)(C)O)cc1 [p-cymen-8-ol] | – | – | – | % Reduction of Hydrogen Peroxide TRPA1 Activation [2]: 50.6%; Average Ca++ Counts [2]: 3476.5 Counts; Block of hydrogen peroxide activation of TRPA1 [2]: BLOCK ONLY H2O2/TRPA1 |
| CC(C)C=C(C=O)c1ccccc1 (mixture of isomers) [4-Methyl-2-phenyl-2 Pentenal] | – | – | – | inhibition at 400 µM [2, 7]: 54% |
| CC(=O)OCC(C)(C)Cc1ccccc1 [alpha,alpha-dimethylhydrocinnamyl acetate] | – | 3367.0 | 52.2 | – |
| [Cl][Fe]([Cl])[Cl] [ferric chloride] | BLOCK ONLY H2O2/TRPA1 | 3287.0 | – | % Reduction of Hydrogen Peroxide TRPA1 Activation [2, 4]: 53.3% |
| CCCCCO [amyl alcohol] | BLOCK ONLY H2O2/TRPA1 | 3149.0 | 55.3 | – |
| CCCCCCCCC1CCC(=O)O1 (stereo not drawn) [γ-Dodecalactone] | – | – | – | % Reduction of Hydrogen Peroxide TRPA1 Activation [2]: 51%; Block of hydrogen peroxide activation of TRPA1 [2]: BLOCK ONLY H2O2/TRPA1 |
